Structures are written as SMILES.

These results are taken from paper PMC6396881 (European journal of medicinal chemistry, 2018).

The target of one series is DYRK1A (Homo sapiens, UniProt Q13627). The series is described as follows: KINOMEscan qPCR-based binding assay. As to conditions: for fold improvement in DYRK1A binding (Kd) as compared to hit 3–1: ratio of Kd.
The subject of series [1] is human β-cell. Nature of the series: Human β-cell proliferation assay. The series is classed as cell-based. As to conditions: 5 μM, 96 hours, KI67 labeling of insulin-labeled cells, compared to vehicle-treated cells.
Series [2] concerns human β-cell. As to conditions: cited from earlier work.

Regarding `O=c1[nH]c2ccc(C3=NN=C(NCc4cccnc4)SC3)cc2[nH]1` [3–13, N-(pyridine-3yl)methyl-5-(benzo[d]imidazol-2(3H)-one)-6H-1,3,4-thiadiazin-2-amine], the “fold improvement in DYRK1A binding (Kd) as compared to hit 3–1” value on DYRK1A was 5 fold.
On the same count and under the same terms, next, `CC(NC1=NN=C(c2ccc3[nH]c(=O)[nH]c3c2)CS1)c1ccccc1` (centres unmarked) [3–16, N-(1-phenylethyl)-5-(benzo[d]imidazol-2(3H)-one)-6H-1,3,4-thiadiazin-2-amine]: 4 fold.
For the compound `O=c1[nH]c2ccc(C3=NN=C(NCc4ccc(F)cc4)SC3)cc2[nH]1` [Compound 3–5, N-(4-fluorobenzyl)-5-(benzo[d]imidazol-2(3H)-one)-6H-1,3,4-thiadiazin-2-amine], the “human β-cell proliferation” value with human β-cell [1] is reported as “induced human β-cell proliferation”.
Take `COc1ccc2c(c1)[nH]c1c(C)nccc12` [Harmine, reference compound]: the “fold induction in human pancreatic β-cell proliferation” value in the series with human β-cell [2] is listed as 10–15 fold. Further, the “% DMSO Ctrl, DYRK1A” value on DYRK1A is less than 1%.
